Assay results reported in patent publication US6603031B1, “Vitamin D derivatives with cyclic substructures in the side chains, process and intermediate products for their production, and the use for the production of pharmaceutical agents” (Schering Aktiengesellschaft, priority 1999, dated 2003).
Where two headings read alike, the source gives them in different places.

What was measured:
vitamin D receptor = biological target: T1, vitamin D receptor (Sus scrofa, UniProt A3RGC1); experiment: calcitriol-receptor test (competition with 3H-calcitriol); settings: protein extract from intestines of juvenile pigs
T1 sequence (A3RGC1 1-427): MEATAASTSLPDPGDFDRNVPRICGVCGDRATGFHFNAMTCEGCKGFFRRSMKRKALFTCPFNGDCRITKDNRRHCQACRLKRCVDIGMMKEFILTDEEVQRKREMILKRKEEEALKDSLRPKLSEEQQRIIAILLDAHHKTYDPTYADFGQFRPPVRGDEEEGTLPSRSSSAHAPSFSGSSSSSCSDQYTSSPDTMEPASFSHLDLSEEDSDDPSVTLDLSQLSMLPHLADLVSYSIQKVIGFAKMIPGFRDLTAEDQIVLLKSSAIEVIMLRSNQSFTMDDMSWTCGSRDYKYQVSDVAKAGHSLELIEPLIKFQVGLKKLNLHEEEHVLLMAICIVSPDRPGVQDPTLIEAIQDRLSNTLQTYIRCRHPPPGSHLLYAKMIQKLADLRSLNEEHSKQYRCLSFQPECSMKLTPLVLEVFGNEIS
Experimental: The vitamin D activity of the substances according to the invention is determined with the aid of the calcitriol-receptor test. It is carried out using a protein extract from the intestines of juvenile pigs. […] To this end, 250 μl of a charcoal-dextran suspension is fed to each test tube and incubated at 4° C. for 20 minutes. Then, the samples are centrifuged at 10,000 g for 5 minutes at 40° C. The supernatant is decanted and measured in a β-counter after 1 hour of equilibration in Picofluor 15™.
The competition curves that are obtained at various concentrations of test substance as well as of reference substance (unlabeled calcitriol) at constant concentration of the reference substance (^3H-calcitriol) are placed in relation to one another, and a competition factor (KF) is determined.
It is defined as a quotient of the concentrations of the respective test substance and the reference substance, which are necessary for 50% competition:
KF=Concentration of test substance at 50% competition/Concentration of reference substance at 50% competition

HL 60 cells = experiment: differentiation induction of HL 60 cells to macrophages (NBT reduction); format: cell-based, human; settings: 96 hours incubation, reference calcitriol
Experimental: The differentiation-stimulating action of calcitriol analogues is also detected quantitatively.
It is known in the literature [D. J. Mangelsdorf et al., J. Cell. Biol. 98: 391 (1984)] that the treatment of human leukemia cells (promyelocyte cell line HL 60) in vitro with calcitriol induces the differentiation of cells to macrophages.
HL 60 cells are cultivated in tissue culture medium (RPMI 10% fetal calf serum) at 37° C. in an atmosphere of 5% CO2 in air.
For substance testing, the cells are centrifuged off, and 2.0×10^5 cells/ml in phenol red-free tissue culture medium is taken up. The test substances are dissolved in ethanol and diluted with tissue culture medium without phenol red to the desired concentration. The dilution stages are mixed with the cell suspension at a ratio of 1:10, and 100 μl each of this cell suspension that is mixed with substance is pipetted into an indentation of a 96-hole plate. For control, a cell suspension is mixed analogously with the solvent.
After incubation for 96 hours at 37° C. in 5% CO2 in air, 100 μl of an NBT-TPA solution (nitro blue tetrazolium (NBT), final concentration in the batch of 1 mg/ml, tetradecanoyl phorbolmyristate-13-acetate (TPA), final concentration in the batch of 2×10^−7 mol/l) is pipetted into each indentation of the 96-hole plate in the cell suspension.
By incubation for 2 hours at 37° C. and 5% CO2 in air, NBT is reduced to insoluble formazan because of the intracellular oxygen radical release, stimulated by TPA, in the cells that are differentiated to macrophages.
To complete the reaction, the indentations of the 96-hole plate are suctioned off, and the cells are affixed to the bottom of the plate by adding methanol and dried after affixing. To dissolve the intracellular formazan crystals that are formed, 100 μl of potassium hydroxide (2 mol/l) and 100 μl of dimethyl sulfoxide are pipetted into each indentation and ultrasonically treated for 1 minute. The concentration of formazan is measured by spectrophotometry at 650 nm.
As a yardstick for the differentiation induction of HL 60 cells to macrophages, the concentration of formed formazan applies.

[1] = rat, in vivo, sc
Experimental: (§1) To determine the acute hypercalcemic action of various calcitriol derivatives, the test that is described below is carried out:
(§2) During the testing time, the rats are kept in special cages to determine the excretion-of water-and mineral substances. Urine is collected in 2 fractions (0-16 hours and 16-22 hours). An oral dose of calcium (0.1 mmol of calcium in 6.5% alpha-hydroxypropyl-cellulose, 5 ml/animal) replaces at 1600 hours the calcium intake that is lacking by food deprivation. At the end of the test, the animals are killed by decapitation and exsanguinated to determine the serum-calcium values. For the primary screen test in vivo, an individual standard dose (200 μg/kg) is tested. For selected substances, the result is supported by establishing a dose-effect relation.
(§3) The significance of differences occurring between substance groups and controls and between test substance and reference substance are supported with suitable statistical processes.

[2] = acute hypercalcemic action after one-time subcutaneous administration (serum calcium); settings: male rats, reference calcitriol
Experimental: as §1, §2, §3

| SMILES | KF (competition factor: concentration of test substance / reference substance at 50% competition) (vitamin D receptor) | DR (HL 60) (dose ratio test substance/reference substance for comparable semi-maximum actions) (HL 60 cells) | DR (Ca) (dose ratio for hypercalcemia, test substance dose/reference substance dose for comparable actions) [1] | DR (Ca) (dose ratio for hypercalcemia, test substance dose/reference substance dose for comparable actions) [2] |
| --- | --- | --- | --- | --- |
| CC(CCCC(O)c1cocn1)C1CCC2C(=CC=C3CC(O)CC(O)C3)CCCC21C [16a, (7E)-(1R,3R,24aR)-24a-(Oxazol-4-yl)-24a-homo-19-nor-9,10-secochola-5,7-diene-1,3,24a-triol] | 5 | 5 | >30 |  |
| C=C1C(=CC=C2CCCC3(C)C2CCC3C(C)CCCC(O)c2cocn2)CC(O)CC1O [20a, (5Z,7E)-(1S,3R,24aR)-24a-(Oxazol-4-yl)-24a-homo-9,10-secochola-5,7,10(19)-triene-1,3,24a-triol] | 3 | 2 |  | >50 |
| C[C@H](CCC[C@H](O)c1cccs1)[C@H]1CC[C@H]2/C(=C/C=C3C[C@@H](O)C[C@H](O)C3)CCC[C@]12C [55b, (7E)-(1R,3R,24aS)-24a-(thien-2-yl)-24a-homo-19-nor-9,10-secochola-5,7-diene-1,3,24a-triol] | 5 | 8 | >100 |  |
| C=C1C(=CC=C2CCCC3(C)C2CCC3C(C)CCC(O)c2nccs2)CC(O)CC1O [217a, (5Z,7E)-(1S,3R,24S)-24-(Thiazol-2-yl)-9,10-secochola-5,7,10(19)-triene-1,3,24-triol] | 7 | 100 | >300 |  |
| C=C1/C(=C\C=C2/CCC[C@]3(C)[C@@H]([C@H](C)CCCC(C)(C)O)CC[C@@H]23)C[C@@H](O)C[C@@H]1O [Calcitriol, 1,25-dihydroxy vitamin D3, reference compound] |  | 1 |  | 1 |
| C[C@H](CCCC(=O)c1cccs1)[C@H]1CC[C@H]2/C(=C/C=C3C[C@@H](O)C[C@H](O)C3)CCC[C@]12C [compound 57, (7E)-(1R,3R)-1,3-Dihydroxy-24a-(thien-2-yl)-24a-homo-19-nor-9,10-secochola-5,7-dien-24a-one] | 12 | 2 | >350 |  |
